Test results reported in ChEMBL document CHEMBL2331194, “Ligerin, an antiproliferative chlorinated sesquiterpenoid from a marine-derived Penicillium strain” (J Nat Prod, 2013).

Tests used:
[1] = Antiproliferative activity against rat OSRGA cells assessed as inhibition of cell viability after 72 hrs by XTT assay; type: functional, cell-based
[2] = Antiproliferative activity against mouse POS1 cells assessed as inhibition of cell viability after 72 hrs by XTT assay; type: functional, cell-based; details: POS1, 72 h
[3] = Antiproliferative activity against rat AT6-1 cells assessed as inhibition of cell viability at 60 to 2400 nM after 72 hrs by XTT assay; type: functional
[4] = tested on: L929; experiment: cells; details: Mus musculus, L929, 72 h
Description: Antiproliferative activity against mouse L929 cells assessed as inhibition of cell viability after 72 hrs by XTT assay

[5] = tested on: KB; experiment: cells; details: Homo sapiens, 72 h
Description: Antiproliferative activity against human KB cells assessed as inhibition of cell viability after 72 hrs by MTT assay

[6] = Antiproliferative activity against rat OSRGA cells assessed as inhibition of cell viability at 60 to 2400 nM after 72 hrs by XTT assay; type: functional
[7] = cells; details: Rattus norvegicus, 72 h
Description: Antiproliferative activity against rat AT6-1 cells assessed as inhibition of cell viability after 72 hrs by XTT assay

[8] = Antiproliferative activity against mouse L929 cells assessed as inhibition of cell viability at 60 to 2400 nM after 72 hrs by XTT assay; type: cell-based; set-up: dose or concentration left out as unconfirmed

Compound	IC50 [1] [nM]	IC50 [2] [nM]	inhibition (INH) [3] [%]	IC50 [4] [nM]	IC50 [5] [nM]	inhibition (INH) [6] [%]	IC50 [7] [nM]	inhibition at 72 h [8] [%]
COc1cccc2c1C(=O)c1c(O)c3c(c(O)c1C2=O)C[C@@](O)(C(=O)CO)C[C@@H]3O[C@H]1C[C@H](N)[C@H](O)[C@H](C)O1 [DOXORUBICIN]	93	43	–	–	–	–	–	–
CO[C@@H]1[C@H](OC(=O)CCC(=O)O)CC[C@](O)(CCl)[C@H]1[C@@]1(C)O[C@@H]1CC=C(C)C [LIGERIN]	> 2400	117	20	> 2400	> 478000	22	> 2400	35
C=C(C)C1(O)OC(=O)C=C1OC (centres undefined) [PENICILLIC ACID]	–	7800	–	12900	> 100000	–	29400	–
